pIC50: −log10 of the molar value. Records with an inconclusive call do not appear. Calls of active or inactive are those of the source.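 The calls were made as follows: active = inhibition of 30% or more at any tested concentration; inactive = the rest, inconclusive results apart.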

The target in one experiment is M1-family alanyl aminopeptidase (Plasmodium falciparum 3D7). Nature of the experiment: malaria M1 alanyl aminopeptidase inhibitors – biochemical, QFRET, H-Leu-NHMec substrate, selectivity assay for PfM17LAP inhibitor project, dose response (AID 588698). The conditions noted are these: recombinant PfM1AAP, H-Leu-NHMec fluorogenic substrate cleavage.
As a reminder, the pIC50 is the negative decadic logarithm of the IC50, by convention in mol/L. In the case of `O=C(Cc1cccc2ccccc12)NO`, the negative-log IC50 (pIC50) is 4.10.

For `O=C(Cc1ccc2ccccc2c1)NO`, the pIC50 is 4.47.

Still in this experiment, the particulars now being: recombinant PfM1AAP, H-Leu-NHMec fluorogenic substrate cleavage; at 100 µM (top of the series).
For `COC(=O)c1c(NC(=O)C2CC=CCC2C(=O)O)sc(C)c1-c1ccc(C)cc1` (stereo not drawn), the inhibition result is “inactive”.

On to `COC(=O)c1ccccc1NC(=O)c1cc2cc3ccc(C)cc3nc2s1`, for which the inhibition entry was “inactive”.

As for `O=C(Nc1ccc(Cl)cc1)Nc1ccccc1C(=O)O`, the inhibition entry is “inactive”.

Turning to `COc1cc(NC(=O)c2ccc(-c3ccccc3)cc2)c(C(=O)O)cc1OC`, the inhibition entry was “inactive”.

Regarding `O=C(CSc1nccc(=O)[nH]1)Nc1ccc(N2CCOCC2)cc1`, the inhibition result was “inactive”.

Regarding `NC(N)=NCCC[C@H](N)C(=O)NO`, the inhibition result was “inactive”.

Consider `COc1cc(NC(=O)CSc2ccccc2)c(C(=O)O)cc1OC`, for which the inhibition entry is “inactive”.

Take `CC1CCc2sc(C(=O)Nc3cccc4c3C(=O)NC4)cc2C1` (stereo not drawn): the inhibition result is “inactive”.

As for `CC1=C(C)CC(C(=O)Nc2nc(-c3cc(C)ccc3C)c(C)s2)C(C(=O)O)C1` (stereo not drawn), the inhibition result is “inactive”.

Consider `CCC(C)(C)C1CCc2c(sc(NC(=O)C3CC(C)=C(C)CC3C(=O)O)c2C(=O)OC)C1` (stereo not drawn), for which the inhibition entry is “inactive”.

`O=C(CSc1nc(O)cc(=O)[nH]1)Nc1ccccc1`: the inhibition result is “inactive”.

Take `O=C1OCCC1Sc1nnc(NC2CCCCC2)s1` (stereo not drawn): the inhibition result is “inactive”.

As for `Cc1cc(SCC(=O)Nc2ccccc2C(=O)O)nc2ccccc12`, the inhibition entry is “inactive”.

With `O=C(O)c1ccccc1C(=O)Nc1nc2c(s1)CCCC2`, the inhibition entry was “inactive”.

Turning to `COC(=O)c1c(NC(=O)c2ccccc2C(=O)O)sc2c1CCCC2`, the inhibition result is “inactive”.

Regarding `CCn1c2ccccc2c2cc(NC(=O)CSc3nc(C)cc(=O)[nH]3)ccc21`, the inhibition entry is “inactive”.

On to `COc1ccc(OCCC(=O)NO)cc1`, for which the inhibition result was “inactive”.

In the case of `Cc1ccc(NC(=O)CSc2nc(O)cc(=O)n2Cc2ccccc2)cc1`, the inhibition result was “inactive”.

Turning to `COc1ccc(-c2nnc(NC(=O)C3CC(C)=C(C)CC3C(=O)O)s2)cc1` (stereo not drawn), the inhibition entry was “inactive”.

As for `COC(=O)c1ccccc1NC(=O)c1ccc2c(Cl)c3c(nc2c1)CCC3`, the inhibition result was “inactive”.

`CC(C)C[C@H](N)C(=O)NO`: the inhibition entry is “inactive”.

As for `CC1=C(C)CC(C(=O)Nc2ccc(Oc3ccc(Cl)cc3)cc2)C(C(=O)O)C1` (stereo not drawn), the inhibition entry was “inactive”.

For `COC(=O)c1c(NC(=O)C2CCCCC2C(=O)O)sc2c1CCC(c1ccccc1)C2` (stereo not drawn), the inhibition entry is “inactive”.

`Cc1cc(=O)[nH]c(SCC(=O)Nc2ccccc2)n1`: the inhibition result was “inactive”.

Turning to `COC(=O)c1cc(OC)c(OC)cc1NC(=O)c1sc2nc(C)ccc2c1N`, the inhibition entry is “inactive”.

`O=C(CSc1nccc(=O)[nH]1)Nc1ccc(Oc2ccccc2)cc1`: the inhibition entry was “inactive”.

Values taken from PubChem BioAssay AID588698 (Southern Research Specialized Biocontainment Screening …, 2011).
